Source: PubChem BioAssay (NCI)
“And” between values parts separate entries of the source, which are not always exact repeats. Equal values may be shown once.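 Five compound concentrations were applied to cells in 96-well plates for 48 hours; endpoints were derived by simple linear interpolation of the resulting dose-response curve. The concentration for 50% growth inhibition is given as GI50. Definition used: TGI = concentration required for complete inhibition of growth.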

Assays:
Assay in all cases: DTP human tumour cell line panel, 48 h
DMS 273 small cell lung = system: DMS 273 small cell lung
HCT-15 colon = system: HCT-15 colon
HL-60(TB) leukemia = system: HL-60(TB) leukemia
KM20L2 colon = system: KM20L2 colon
MOLT-4 leukemia = system: MOLT-4 leukemia
OVCAR-3 ovarian = system: OVCAR-3 ovarian
SK-MEL-28 melanoma = system: SK-MEL-28 melanoma
TK-10 renal = system: TK-10 renal
NCI-H23 lung = system: NCI-H23 lung
SNB-75 CNS = system: SNB-75 CNS
T-47D breast = system: T-47D breast

SMILES	TGI (DMS 273 small cell lung) [µM]	TGI (HCT-15 colon) [µM]	GI50 (HL-60(TB) leukemia) [µM]	TGI (HL-60(TB) leukemia) [µM]	TGI (KM20L2 colon) [µM]	TGI (MOLT-4 leukemia) [µM]	TGI (OVCAR-3 ovarian) [µM]	GI50 (SK-MEL-28 melanoma) [µM]	TGI (SK-MEL-28 melanoma)	GI50 (TK-10 renal) [µM]	TGI (TK-10 renal)	TGI (NCI-H23 lung) [µM]	TGI (SNB-75 CNS) [µM]	TGI (T-47D breast) [µM]
CN(C)CCCNc1c2ccccc2nc2cccc([N+](=O)[O-])c12	0.0184	0.00142	0.0175	0.0721	0.0398	0.052	0.0673	0.0202	0.00689 µM and 0.0422 µM	0.0203	0.00909 µM and 0.0869 µM			
N#Cc1c(N2CCCC2)ncn(Cc2ccccc2)c1=S		> 100		> 100		> 100	> 100		> 100 µM		> 100 µM	> 100	> 95.2	> 100
NCCNCCCCCCNC(=O)c1cccc2cc3ccccc3nc12		25.5		3.51		4.47	7.16		12.3 µM		20.8 µM	6.81	11.8	21.5
COc1ccc(C[C@H](N)C(=O)N2C[C@H](CO)C[C@H](n3ccc(=O)[nH]c3=O)C2)cc1	> 100	> 100		> 100	> 100	> 100	> 100		> 100 µM		> 100 µM	> 100		
O=C1C=C2CO[C@H]3OC[C@H](O)[C@@H]1[C@@H]23		> 100		76.1		> 100	> 100		> 100 µM		> 100 µM	> 100	> 100	67.3
Cc1cc2ccccc2n1CC(=O)N1CCCC1		> 100		> 100		> 100	> 100		> 100 µM		> 100 µM	> 100	> 100	> 100
O=C(CN1CCCCC1)c1ccc2c(c1)Sc1ccccc1O2		24.6		58.1		> 100	29.6		37.8 µM		44.6 µM	27.9	24.2	47.9
COc1ccc2c(c1)nc1n2C(N)=Nc2ccccc2S1		> 100		6.95		> 56.6	67.8		> 100 µM		> 100 µM	> 100	> 100	> 92.3
Cc1ccc(C)c(COCCOCn2cc(Br)c(N)nc2=O)c1		> 100		> 100		> 100	> 100		> 100 µM		> 100 µM	> 100	> 100	> 100
COc1c(OC)c(O)c2c(=O)c(OC)c(-c3ccc4c(c3)OCO4)oc2c1O		> 100		> 100		> 100	> 100		> 100 µM		> 100 µM	> 100	> 100	> 100
CC(=Nc1c2ccccc2nc2ccccc12)N(C)C		> 100		24		44.8	46.5		61.5 µM		> 100 µM	41.1	71	54.5
Cc1cc(NS(=O)(=O)c2ccc(NC(=O)c3cccc4c(NNc5ccc(S(=O)(=O)N=C(N)N)cc5)c5ccccc5nc34)cc2)no1		> 100		75.6		74.9	> 100		> 100 µM		> 100 µM	> 100	88.3	> 100
C[C@@H]1C[C@]2(C[C@@H](C)[C@H]3C(C[C@@]4(C)CCC[C@@H]5C6=C[C@H](CCC34C)OC6=CC(=O)OC5(C)C)O2)OC1=O (stereo not given in full)	> 51.5	> 51.5		> 51.5	> 51.5	> 51.5	> 51.5					> 51.5	47.5	
CCOC(=O)C1=C(C)C(C(=O)OC)/C(=C/c2cccc3cccnc23)C1=O (stereo not given)		> 10		> 10		> 10	> 10		> 10 µM		> 10 µM	> 10	> 10	> 10
COC(=O)/C=C\C(C#N)(C#N)N=Cc1ccc(C)s1		3.66		5.16		5.82	9.81		9.64 µM		3.8 µM	6.69	19.9	3.92
Cc1cc(Nc2ccc(N=Nc3ccc(O)c4ncccc34)cc2)nc(C)n1		36		16.5		48.3	> 29.5		> 68.7 µM		50.2 µM	> 54.2	43.6	35.6
